Source: patent US20240368194A1, “IRAK4 DEGRADATION AGENT, AND PREPARATION METHOD THEREFOR AND USE THEREOF” (SHANGHAI LEADINGTAC PHARMACEUTICAL CO. LTD., priority 2021, published 2024)

Columns and labels:
IRAK4 kinase = IRAK4 kinase (Homo sapiens (Human), UniProt Q9NWZ3); assay: IRAK4 kinase activity test (KinEASE-STK S1 HTRF kit); type: biochemical; conditions: 2.5 nM IRAK4 kinase, 7 μM ATP, 37° C. 120 min
Description: Then 2.5 nM 1RAK4 kinase (Carna), 1 μM biotinylated polypeptide substrate (Cisbio) and 7 μM adenosine triphosphate (Sigma-Aldrich) were sequentially added, and the mixtures were incubated at 37° C. for 120 min. Subsequently, an anti-phosphoserine/threonine antibody (Cisbio) conjugated with a europium element compound and conjugated modified XL665 streptavidin (Cisbio) were added to the reaction systems to stop the reactions. After 1 h of incubation at room temperature, the fluorescence intensity of each well was measured at the excitation wavelength of 337 nm and the emission wavelengths of 620 nm and 665 nm with a microplate reader EnVision (PerkinElmer) in the HTRF mode, and Ratio values were calculated using the formula Ratio=(665 nm/620 nm)×[…]. The inhibition rate of the compound at each concentration was calculated by comparing the fluorescence intensity ratio with that of the control group. Then a non-linear curve fitting of logarithmic concentration-inhibition rate was performed using GraphPad Prism 7, and the IC50 value of the compound was obtained.

[1] = target: IRAK4 protein in THP-1 cells (Homo sapiens (Human), UniProt Q9NWZ3); assay: Degradation of IRAK4 in THP-1 cells, human IRAK4 AlphaLISA assay; type: cell-based; conditions: 24 h incubation
Description: THP-1 cells (Stem Cell Bank, Chinese Academy of Sciences) were inoculated onto a 24-well cell culture plate at 0.95 mL/well, with a cell density of 5×10^5 cells/well. The cell plate was incubated overnight in a 37° C., 5% carbon dioxide incubator, and 50 μL of a solution of a compound in dimethyl sulfoxide was added, such that the final concentration of the compound fell within the range of 0.03-3000 nM. After another 24 h of incubation, cells were collected into 1.5 mL centrifuge tubes and centrifuged at 1000 rpm at 4° C. for 5 min. The cell pellets were washed twice with 1×DPBS. The resuspended cells were lysed with 200 μL of lysis buffer (Western and IP cell lysis buffer (Beyotime), supplemented with 1 mM phenylmethylsulfonyl fluoride and protease inhibitor cocktail (Beyotime)), left to stand on ice for 30 mini, and then centrifuged at 14,000 g at 4° C. for 10 min. The supernatant samples were assayed by Western Blot for IRAK4 protein levels.
The above cell lysates were also tested for IRAK4 degradation using a human IRAK4 AlphaLISA assay kit (PerkinElmer, AL3117C). The method is specifically as follows: 2-μL test samples of cell lysate supernatant were transferred to a white 384-well plate (PerkinElmer, 6007299), and 4 μL of 5× anti-IRAK4 receptor beads (PerkinElmer, final concentration of 10 μg/mL) was then added. The plate was incubated at 23° C. for 30 min. Then 4 μL of 5× biotin-labeled anti-IRAK4 antibody (PerkinElmer, final concentration of 1 nM) was added, and the plate was incubated at 23° C. for 60 min. Finally, 10 μL of 2′ streptavidin-labeled donor beads (final concentration of 40 μg/mL) was added to each well, and the plate was incubated in the dark at 23° C. for 30 min. After the incubation was complete, AlphaLISA signal values were measured on a microplate reader EnVision (PerkinElmer, 2105) in the AlphaScreen standard mode, and IRAK4 concentrations were calculated from these signal values. Then a non-linear curve fitting of logarithmic concentration-inhibition rate was performed using GraphPad Prism 7, and the DC50 and Dmax values of the compound were obtained.

Sequence of IRAK4 kinase (Q9NWZ3 whole entry): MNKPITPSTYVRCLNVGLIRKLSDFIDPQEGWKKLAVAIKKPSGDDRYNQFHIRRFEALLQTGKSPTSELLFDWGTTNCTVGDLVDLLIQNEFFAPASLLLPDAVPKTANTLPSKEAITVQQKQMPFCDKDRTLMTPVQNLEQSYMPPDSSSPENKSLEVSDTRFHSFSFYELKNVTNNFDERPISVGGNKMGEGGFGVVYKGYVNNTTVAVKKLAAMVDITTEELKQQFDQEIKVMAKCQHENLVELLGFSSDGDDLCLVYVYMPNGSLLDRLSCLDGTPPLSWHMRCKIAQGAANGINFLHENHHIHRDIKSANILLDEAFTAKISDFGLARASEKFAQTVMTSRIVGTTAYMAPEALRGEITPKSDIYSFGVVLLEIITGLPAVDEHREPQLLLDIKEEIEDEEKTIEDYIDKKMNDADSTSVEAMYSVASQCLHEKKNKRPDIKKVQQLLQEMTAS
Sequence of IRAK4 protein in THP-1 cells (Q9NWZ3 whole entry): as above

IC50 (IRAK4 kinase) | DC50 [1] | Dmax [1] | Structure (SMILES)
524 nM | – | – | O=C1CCN(c2cc(C(=O)N3CCC4(CCN(CC5CCN(c6ccc(NC(=O)c7cnn8ccc(N9C[C@H]%10C[C@@H]9CO%10)nc78)c(Cl)c6)CC5)CC4)CC3)ccc2Cl)C(=O)N1 [Example 6, 5-((1R,4R)-2-oxa-5-azabicyclo[2.2.1]heptan-5-yl)-N-(2-chloro-4-(4-((9-(4-chloro-3-(2,4-dioxotetrahydropyrimidin-1(2H)-yl)benzoyl)-3,9-diazaspiro[5.5]undecan-3-yl)methyl)piperidin-1-yl)phenyl)pyrazolo[1,5-a]pyrimidine-3-carboxamide]
270 nM | – | – | O=C1CCN(c2cc(C(=O)N3CCC(C#CCN4CCC(n5cc(NC(=O)c6cnn7ccc(N8C[C@H]9C[C@@H]8CO9)nc67)c(C(F)F)n5)CC4)CC3)ccc2Cl)C(=O)N1 [Example 12, 5-((1R,4R)-2-oxa-5-azabicyclo[2.2.1]heptan-5-yl)-N-(1-(1-(3-(1-(4-chloro-3-(2,4-dioxotetrahydropyrimidin-1(2H)-yl)benzoyl)piperidin-4-yl)prop-2-yn-1-yl)piperidin-4-yl)-3-(difluoromethyl)-1H-pyrazol-4-yl)pyrazolo[1,5-a]pyrimidine-3-carboxamide]
124 nM | – | – | O=C1CCN(c2cc(C(=O)N3CCC(CCCN4CCC(n5cc(NC(=O)c6cnn7ccc(N8C[C@H]9C[C@@H]8CO9)nc67)c(C(F)F)n5)CC4)CC3)ccc2Cl)C(=O)N1 [Example 14, 5-((1R,4R)-2-oxa-5-azabicyclo[2.2.1]heptan-5-yl)-N-(1-(1-(3-(1-(4-chloro-3-(2,4-dioxotetrahydropyrimidin-1(2H)-yl)benzoyl)piperidin-4-yl)propyl)piperidin-4-yl)-3-(difluoromethyl)-1H-pyrazol-4-yl)pyrazolo[1,5-a]pyrimidine-3-carboxamide]
– | 5.55 nM | 94.4% | O=C1CCN(c2cc(C(=O)N3CCC4(CCN(C[C@H]5CC[C@H](n6cc(NC(=O)c7cnn8ccc(N9CC%10(COC%10)C9)nc78)c(C(F)F)n6)CC5)CC4)CC3)ccc2Cl)C(=O)N1 [Example 48, N-(1-((1R,4R)-4-((9-(4-chloro-3-(2,4-dioxotetrahydropyrimidin-1(2H)-yl)benzoyl)-3,9-diazaspiro[5.5]undecan-3-yl)methyl)cyclohexyl)-3-(difluoromethyl)-1H-pyrazol-4-yl)-5-(2-oxa-6-azaspiro[3.3]heptan-6-yl)pyrazolo[1,5-a]pyrimidine-3-carboxamide]
27.1 nM | – | – | O=C1CCN(c2cc(N3CCN(CCCCN4CCC(n5cc(NC(=O)c6cnn7ccc(N8C[C@H]9C[C@@H]8CO9)nc67)c(C(F)F)n5)CC4)CC3)ccc2Cl)C(=O)N1 [Example 51, 5-((1R,4R)-2-oxa-5-azabicyclo[2.2.1]heptan-5-yl)-N-(1-(1-(4-(4-(4-chloro-3-(2,4-dioxotetrahydropyrimidin-1(2H)-yl)phenyl)piperazin-1-yl)butyl)piperidin-4-yl)-3-(difluoromethyl)-1H-pyrazol-4-yl)pyrazolo[1,5-a]pyrimidine-3-carboxamide]
– | 8.13 nM | 88.2% | CN(CCC1CCN(C(=O)c2ccc(F)c(C3CCC(=O)NC3=O)c2)CC1)C(=O)[C@H]1CC[C@H](n2cc(NC(=O)c3cnn4ccc(N5CCOCC5)nc34)c(C(F)F)n2)CC1 (stereo partly drawn) [Example 54, N-(3-(difluoromethyl)-1-((1R,4R)-4-((2-(1-(3-(2,6-dioxopyridin-3-yl)-4-fluorobenzoyl)piperidin-4-yl)ethyl)(methyl)carbamoyl)cyclohexyl)-1H-pyrazol-4-yl)-5-morpholinopyrazolo[1,5-a]pyrimidine-3-carboxamide]
– | 7.92 nM | 70.8% | COc1ccc(C(=O)N2CCC3(CCC(N(C)C[C@H]4CC[C@H](n5cc(NC(=O)c6cnn7ccc(N8CCOCC8)nc67)c(C(F)F)n5)CC4)CC3)CC2)cc1N1CCC(=O)NC1=O [Example 59, N-(3-(difluoromethyl)-1-((1R,4R)-4-(((3-(3-(2,4-dioxotetrahydropyrimidin-1(2H)-yl)-4-methoxybenzoyl)-3-azaspiro[5.5]undecan-9-yl)(methyl)amino)methyl)cyclohexyl)-1H-pyrazol-4-yl)-5-morpholinopyrazolo[1,5-a]pyrimidine-3-carboxamide]

The next lines start with the molecule.

Structure (SMILES) | IC50 (IRAK4 kinase) | DC50 [1] | Dmax [1]
O=C1CCN(c2cc(C(=O)N3CCN(C[C@H]4CC[C@H](n5cc(NC(=O)c6cnn7ccc(N8C[C@H]9C[C@@H]8CO9)nc67)c(C(F)F)n5)CC4)CC3)ccc2Cl)C(=O)N1 [Example 3, 5-((1R,4R)-2-oxa-5-azabicyclo[2.2.1]heptan-5-yl)-N-(1-((1R,4R)-4-((4-(4-chloro-3-(2,4-dioxotetrahydropyrimidin-1(2H)-yl)benzoyl)piperazin-1-yl)methyl)cyclohexyl)-3-(difluoromethyl)-1H-pyrazol-4-yl)pyrazolo[1,5-a]pyrimidine-3-carboxamide] | 67.2 nM | – | –
CN(CC1CCN(C(=O)c2ccc(Cl)c(N3CCC(=O)NC3=O)c2)CC1)C[C@H]1CC[C@H](n2cc(NC(=O)c3cnn4ccc(N5C[C@H]6C[C@@H]5CO6)nc34)c(C(F)F)n2)CC1 [Example 4, 5-((1R,4R)-2-oxa-5-azabicyclo[2.2.1]heptan-5-yl)-N-(1-((1R,4R)-4-((((1-(4-chloro-3-(2,4-dioxotetrahydropyrimidin-1(2H)-yl)benzoyl)piperidin-4-yl)methyl)(methyl)amino)methyl)cyclohexyl)-3-(difluoromethyl)-1H-pyrazol-4-yl)pyrazolo[1,5-a]pyrimidine-3-carboxamide] | 37 nM | – | –
O=C1CCN(c2ccc(C(=O)N3CCC4(CCC(CN5CCC(n6cc(NC(=O)c7cnn8ccc(N9CCOCC9)nc78)c(C(F)F)n6)CC5)CC4)CC3)cc2)C(=O)N1 [Example 27, N-(3-(difluoromethyl)-1-(1-((3-(4-(2,4-dioxotetrahydropyrimidin-1(2H)-yl)benzoyl)-3-azaspiro[5.5]undecan-9-yl)methyl)piperidin-4-yl)-1H-pyrazol-4-yl)-5-morpholinopyrazolo[1,5-a]pyrimidine-3-carboxamide] | 13.5 nM | – | –
O=C1CCC(c2cc(C(=O)N3CCN(CCCC(=O)N4CCC(n5cc(NC(=O)c6cnn7ccc(N8CCOCC8)nc67)c(C(F)F)n5)CC4)CC3)ccc2F)C(=O)N1 (stereo not shown) [Example 62, N-(3-(difluoromethyl)-1-(1-(4-(4-(3-(2,6-dioxopiperidin-3-yl)-4-fluorobenzoyl)piperazin-1-yl)butanoyl)piperidin-4-yl)-1H-pyrazol-4-yl)-5-morpholinopyrazolo[1,5-a]pyrimidine-3-carboxamide] | 28.9 nM | – | –
CN(CCC1CCN(C(=O)c2ccc(Cl)c(N3CCC(=O)NC3=O)c2)CC1)C[C@]1(O)CC[C@@H](n2cc(NC(=O)c3cnn4ccc(N5C[C@H]6C[C@@H]5CO6)nc34)c(C(F)F)n2)CC1 [Example 65, 5-((1R,4R)-2-oxa-5-azabicyclo[2.2.1]heptan-5-yl)-N-(1-((1S,4S)-4-(((2-(1-(4-chloro-3-(2,4-dioxotetrahydropyrimidin-1(2H)-yl)benzoyl)piperidin-4-yl)ethyl)(methyl)amino)methyl)-4-hydroxycyclohexyl)-3-(difluoromethyl)-1H-pyrazol-4-yl)pyrazolo[1,5-a]pyrimidine-3-carboxamide] | – | 14.3 nM | 87.2%
